The structures appear in SMILES notation. Bounds are passed on as bounds.

The target in assay [1] is T1, wt human TYK2, catalytic site (Homo sapiens, UniProt P29597).
T1 construct: wt human TYK2, catalytic site; purchased SignalChem
T1 sequence (P29597 897-1176 limits assumed): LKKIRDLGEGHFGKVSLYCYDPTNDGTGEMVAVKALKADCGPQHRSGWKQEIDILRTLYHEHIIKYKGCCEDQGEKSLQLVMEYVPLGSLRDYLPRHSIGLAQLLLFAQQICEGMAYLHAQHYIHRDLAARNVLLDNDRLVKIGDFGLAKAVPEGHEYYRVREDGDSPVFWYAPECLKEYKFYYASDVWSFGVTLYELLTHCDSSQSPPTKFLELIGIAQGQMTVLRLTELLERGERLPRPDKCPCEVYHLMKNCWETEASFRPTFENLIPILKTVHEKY
Briefly: HTRF KinEASE assay, TYK2. As to conditions: 1 μM ATP; read-out: IC50, Activity Toward TYK2. Format: biochemical. The procedure: (§1) Basic protocol for HTRF KinEASE assay (Cisbio/FRA) inhibitor studies involved two steps: • Enzymatic step: Addition of 4 μL of test compound in corresponding DMSO dilutions, 4 μL of kinase/substrate mixture, 2 μL of ATP into 384 well small volume plates. Incubation for at least 30 minutes at room temperature. • Detection step: Addition of 5 μL antibody and 5 μL streptavidin-XL665, read plate after 60 minutes. Data analysis of emission ratios according KinEASE assay protocol.
(§2) Kinase and assay components were adjusted to final concentrations according to kit protocol. For TYK2: 2 nM wt human TYK2, catalytic site (SignalChem/CAN), 1 μM HTRF KinEASE-TK Substrate-biotin, 1 μM ATP in 1× Kinase Buffer. For JAK1: 4 nM wt human JAK1, catalytic site (ThermoFisher/USA), 1 μM HTRF KinEASE-TK Substrate-biotin, 2.5 μM ATP in 1× Kinase Buffer. For JAK2: 1 nM wt human JAK2, catalytic site (SignalChem/CAN), 1 μM HTRF KinEASE-TK Substrate-biotin, 100 μM ATP in 1× Kinase Buffer.
as §2

The target of assay [2] is T2, wt human JAK1, catalytic site (Homo sapiens, UniProt P23458).
T2 construct: wt human JAK1, catalytic site; purchased ThermoFisher
Briefly: HTRF KinEASE assay, JAK1. It is filed as biochemical. The note with it: 2.5 μM ATP; read-out: IC50, Activity Toward JAK1. The method, then: as §1
(§3) Kinase and assay components were adjusted to final concentrations according to kit protocol. For TYK2: 2 nM wt human TYK2, catalytic site (SignalChem/CAN), 1 μM HTRF KinEASE-TK Substrate-biotin, 1 μM ATP in 1× Kinase Buffer. […] For JAK2: 1 nM wt human JAK2, catalytic site (SignalChem/CAN), 1 μM HTRF KinEASE-TK Substrate-biotin, 100 μM ATP in 1× Kinase Buffer.
as §3

T2 sequence (P23458 875-1153 limits assumed): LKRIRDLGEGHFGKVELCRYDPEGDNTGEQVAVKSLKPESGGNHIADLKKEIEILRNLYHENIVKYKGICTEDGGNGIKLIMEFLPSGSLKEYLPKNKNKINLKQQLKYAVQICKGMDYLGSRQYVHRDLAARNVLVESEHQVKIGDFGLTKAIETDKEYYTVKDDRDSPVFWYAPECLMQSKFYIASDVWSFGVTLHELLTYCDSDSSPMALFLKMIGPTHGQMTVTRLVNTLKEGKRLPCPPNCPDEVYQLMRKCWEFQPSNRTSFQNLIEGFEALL

For `COCn1cc(C(F)(F)F)nc1-c1ccc(Nc2cn(-c3c(Cl)cccc3Cl)nc2C(N)=O)cc1` [compound 292, 1-(2,6-dichlorophenyl)-4-((4-(1-(methoxymethyl)-4-(trifluoromethyl)-1H-imidazol-2-yl)phenyl)amino)-1H-pyrazole-3-carboxamide], the IC50 in assay [1] was below 10 nM; in assay [2], 10 to 100 nM.

As to `NC(=O)c1nn(-c2c(Cl)cccc2Cl)cc1Nc1cnc(C(=O)N2CCOCC2)cn1` [compound 401, 1-(2,6-dichlorophenyl)-4-((5-(morpholine-4-carbonyl)pyrazin-2-yl)amino)-1H-pyrazole-3-carboxamide], the IC50 in assay [1] and in assay [2] was 100 to 1000 nM each time.

As for `NC(=O)c1nn(-c2c(Cl)cccc2Cl)nc1Nc1ccc(C(=O)N2CC(F)(F)C(F)(F)C2)cn1` [compound 132, 2-(2,6-dichlorophenyl)-5-((5-(3,3,4,4-tetrafluoropyrrolidine-1-carbonyl)pyridin-2-yl)amino)-2H-1,2,3-triazole-4-carboxamide], the concentration for half-maximal inhibition (IC50) in assay [1] and in assay [2] was 100 to 1000 nM in each case.

Consider `NC(=O)c1nn(-c2c(Cl)cc(F)cc2Cl)nc1Nc1ccc(C(=O)N2CCSCC2)cc1` [compound 177, 2-(2,6-dichloro-4-fluorophenyl)-5-((4-(thiomorpholine-4-carbonyl)phenyl)amino)-2H-1,2,3-triazole-4-carboxamide], for which the IC50 in assay [1] was 10 to 100 nM; in assay [2] it was below 10 nM.

`Cn1c(-c2ccc(Nc3cn(-c4c(Cl)cccc4Cl)nc3C(N)=O)cc2)nnc1C(F)(F)F` [compound 242, 1-(2,6-dichlorophenyl)-4-((4-(4-methyl-5-(trifluoromethyl)-4H-1,2,4-triazol-3-yl)phenyl)amino)-1H-pyrazole-3-carboxamide]: the 50% inhibitory concentration (IC50) in assay [1] and in assay [2] was 10 to 100 nM each time.

Consider `CCc1nc(C(F)(F)F)nn1-c1ccc(Nc2cn(-c3c(Cl)cccc3Cl)nc2C(N)=O)cc1` [compound 277, 1-(2,6-dichlorophenyl)-4-((4-(5-ethyl-3-(trifluoromethyl)-1H-1,2,4-triazol-1-yl)phenyl)amino)-1H-pyrazole-3-carboxamide], for which the IC50 is below 10 nM in assay [1] and 100 to 1000 nM in assay [2].

Consider `NC(=O)c1nn(-c2c(Cl)cccc2Cl)cc1Nc1ccc(-c2nnc3cccc(C(F)(F)F)n23)nc1` [compound 471, 1-(2,6-dichlorophenyl)-4-((6-(5-(trifluoromethyl)-[1,2,4]triazolo[4,3-a]pyridin-3-yl)pyridin-3-yl)amino)-1H-pyrazole-3-carboxamide], for which the 50% inhibitory concentration (IC50) in assay [1] and in assay [2] was 100 to 1000 nM in each case.

In the case of `Cn1cc(Nc2cn(-c3c(Cl)cccc3Cl)nc2C(N)=O)cn1` [compound 377, 1-(2,6-dichlorophenyl)-4-((1-methyl-1H-pyrazol-4-yl)amino)-1H-pyrazole-3-carboxamide], the IC50 in assay [1] lay in the range of 100 to 1000 nM; in assay [2], 10 to 100 nM.

As for `Cc1ccc(=O)n(-c2ccc(Nc3cn(-c4c(Cl)cccc4Cl)nc3C(N)=O)cc2)n1` [compound 72, 1-(2,6-dichlorophenyl)-4-((4-(3-methyl-6-oxopyridazin-1(6H)-yl)phenyl)amino)-1H-pyrazole-3-carboxamide], the figures for the half-inhibitory concentration (IC50) in assay [1] and in assay [2] were 10 to 100 nM and 100 to 1000 nM, respectively.

In the case of `Cc1csc2nnc(-c3ccc(Nc4cn(-c5c(Cl)cccc5Cl)nc4C(N)=O)cn3)n12` [compound 475, 1-(2,6-dichlorophenyl)-4-((6-(5-methylthiazolo[2,3-c][1,2,4]triazol-3-yl)pyridin-3-yl)amino)-1H-pyrazole-3-carboxamide], the IC50 in assay [1] and in assay [2] was 100 to 1000 nM in each case.

Regarding `CCc1ccn(-c2ccc(Nc3cn(-c4c(Cl)cccc4Cl)nc3C(N)=O)cc2)n1` [compound 240, 1-(2,6-dichlorophenyl)-4-((4-(3-ethyl-1H-pyrazol-1-yl)phenyl)amino)-1H-pyrazole-3-carboxamide], the 50% inhibitory concentration (IC50) in assay [1] and in assay [2] was 100 to 1000 nM throughout.

Turning to `NC(=O)c1nn(-c2c(Cl)cccc2Cl)cc1Nc1ccc(C(=O)N2CC[C@@H](N3CCCC3)C2)nc1` [compound 356, (R)-4-((6-([1,3′-bipyrrolidine]-1′-carbonyl)pyridin-3-yl)amino)-1-(2,6-dichlorophenyl)-1H-pyrazole-3-carboxamide], the IC50 was 10 to 100 nM in assay [1] and 100 to 1000 nM in assay [2].

Consider `COCCNC(=O)c1ccc(Nc2cn(-c3c(Cl)cccc3Cl)nc2C(N)=O)cc1` [compound 419, 1-(2,6-dichlorophenyl)-4-((4-((2-methoxyethyl)carbamoyl)phenyl)amino)-1H-pyrazole-3-carboxamide], for which the IC50 in assay [1] and in assay [2] was 10 to 100 nM each time.

Turning to `NC(=O)c1nn(-c2c(Cl)cccc2Cl)cc1Nc1ccc(CC(=O)N2CC(F)C2)nc1` [compound 441, 1-(2,6-dichlorophenyl)-4-((6-(2-(3-fluoroazetidin-1-yl)-2-oxoethyl)pyridin-3-yl)amino)-1H-pyrazole-3-carboxamide], the IC50 in assay [1] and in assay [2] was 100 to 1000 nM in each case.

With `CN1CCCN(C(=O)c2ccc(Nc3cn(-c4c(Cl)cccc4Cl)nc3C(N)=O)nc2)CC1` [compound 448, 1-(2,6-dichlorophenyl)-4-((5-(4-methyl-1,4-diazepane-1-carbonyl)pyridin-2-yl)amino)-1H-pyrazole-3-carboxamide], the half-inhibitory concentration (IC50) in assay [1] lay in the range of 100 to 1000 nM; in assay [2] it was 10 to 100 nM.

In the case of `Cc1cc2nnc(-c3ccc(Nc4cn(-c5c(Cl)cccc5Cl)nc4C(N)=O)cn3)n2c(C)n1` [compound 470, 1-(2,6-dichlorophenyl)-4-((6-(5,7-dimethyl-[1,2,4]triazolo[4,3-c]pyrimidin-3-yl)pyridin-3-yl)amino)-1H-pyrazole-3-carboxamide], the IC50 in assay [1] and in assay [2] was 100 to 1000 nM in each case.

On to `CN1CCC(Oc2ccc(Nc3cn(-c4c(Cl)cccc4Cl)nc3C(N)=O)cn2)CC1` [compound 405, 1-(2,6-dichlorophenyl)-4-((6-((1-methylpiperidin-4-yl)oxy)pyridin-3-yl)amino)-1H-pyrazole-3-carboxamide], for which the IC50 in assay [1] and in assay [2] was 100 to 1000 nM throughout.

On to `Cc1nn(-c2ccc(Nc3cn(-c4c(Cl)cccc4Cl)nc3C(N)=O)cc2)c(C)c1C` [compound 224, 1-(2,6-dichlorophenyl)-4-((4-(3,4,5-trimethyl-1H-pyrazol-1-yl)phenyl)amino)-1H-pyrazole-3-carboxamide], for which the IC50 in assay [1] and in assay [2] was 100 to 1000 nM throughout.

For the compound `Cc1cnncc1-c1ccc(Nc2cn(-c3c(Cl)cccc3Cl)nc2C(N)=O)cc1` [compound 340, 1-(2,6-dichlorophenyl)-4-((4-(5-methylpyridazin-4-yl)phenyl)amino)-1H-pyrazole-3-carboxamide], the half-maximal inhibitory concentration (IC50) was in the range of 10 to 100 nM in assay [1] and 100 to 1000 nM in assay [2].

Take `N#Cc1cccc(Cl)c1-n1cc(Nc2ccc(C(=O)N3CC[C@@H](F)C3)cc2)c(C(N)=O)n1` [compound 459, 1-(2-Chloro-6-cyano-phenyl)-4-[4-((R)-3-fluoro-pyrrolidine-1-carbonyl)-phenylamino]-1H-pyrazole-3-carboxylic acid amide]: the half-inhibitory concentration (IC50) was below 10 nM in assay [1] and 10 to 100 nM in assay [2].

With `Cc1cnnc(-c2ccc(Nc3cn(-c4c(Cl)cccc4Cl)nc3C(N)=O)cc2)c1C` [compound 213, 1-(2,6-dichlorophenyl)-4-((4-(4,5-dimethylpyridazin-3-yl)phenyl)amino)-1H-pyrazole-3-carboxamide], the results for the IC50 in assay [1] and in assay [2] were 10 to 100 nM and 100 to 1000 nM, respectively.

Take `Cc1cccc2ncc(-c3ccc(Nc4cn(-c5c(Cl)cccc5Cl)nc4C(N)=O)cn3)n12` [compound 473, 1-(2,6-dichlorophenyl)-4-((6-(5-methylimidazo[1,2-a]pyridin-3-yl)pyridin-3-yl)amino)-1H-pyrazole-3-carboxamide]: the half-maximal inhibitory concentration (IC50) in assay [1] and in assay [2] was 10 to 100 nM throughout.

Take `COCCc1nc(C(F)(F)F)nn1-c1ccc(Nc2cn(-c3c(Cl)cccc3Cl)nc2C(N)=O)cc1` [compound 330, 1-(2,6-dichlorophenyl)-4-((4-(5-(2-methoxyethyl)-3-(trifluoromethyl)-1H-1,2,4-triazol-1-yl)phenyl)amino)-1H-pyrazole-3-carboxamide]: the IC50 in assay [1] and in assay [2] was 10 to 100 nM throughout.

Consider `CC1(C)CN(C(=O)c2ccc(Nc3nn(-c4c(Cl)cccc4Cl)nc3C(N)=O)cc2)C1` [compound 166, 2-(2,6-dichlorophenyl)-5-((4-(3,3-dimethylazetidine-1-carbonyl)phenyl)amino)-2H-1,2,3-triazole-4-carboxamide], for which the 50% inhibitory concentration (IC50) is 10 to 100 nM in assay [1] and below 10 nM in assay [2].

For the origin of these results see patent US20230373985A1 (Origenis Gmbh, priority 2020, published 2023).
